The target of data set [1] is T1, CpGSTD1 (Culex pipiens, UniProt H9M8E3).
T1 sequence (H9M8E3 1-211): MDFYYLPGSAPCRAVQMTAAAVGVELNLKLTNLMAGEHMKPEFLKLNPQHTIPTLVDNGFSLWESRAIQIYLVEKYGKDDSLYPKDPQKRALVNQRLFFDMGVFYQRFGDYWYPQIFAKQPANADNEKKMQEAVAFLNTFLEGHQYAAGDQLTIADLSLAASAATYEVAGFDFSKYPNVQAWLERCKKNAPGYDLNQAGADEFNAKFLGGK
As to conditions: for Km: pH 6.5.

In data set [2] the target is T2, CpGSTD2 (Culex pipiens, UniProt H9M8E4).
T2 sequence (H9M8E4 1-214): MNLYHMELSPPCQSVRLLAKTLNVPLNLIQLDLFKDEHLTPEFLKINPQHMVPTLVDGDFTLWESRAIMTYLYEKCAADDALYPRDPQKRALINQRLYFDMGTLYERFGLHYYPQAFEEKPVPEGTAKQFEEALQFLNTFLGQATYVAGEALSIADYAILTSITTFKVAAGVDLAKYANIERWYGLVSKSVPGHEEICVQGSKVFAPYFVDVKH

The next data set has as its system AgGSTD1-6. As to conditions: cited from earlier work.
A further data set relates to AdGSTD1-1. As to conditions: cited from earlier work.
The target of data set [3] is T1, CpGSTD1. Briefly: Peroxidase activity assay with CMHP, CpGSTD1. As to conditions: 0.125 to 1.0 mM CMHP, 7.5 mM reduced GSH, 25°C, pH 6.5. The data set is classed as biochemical.
The target in data set [4] is T2, CpGSTD2. Kind of data set: Peroxidase activity assay with CMHP, CpGSTD2. The data set is classed as biochemical. As to conditions: pH 7.5; conditions where a rate of at least 0.1 μmol min^−1 mg^−1 could be detected with CpGSTD1.
For data set [5], the target named is T1, CpGSTD1. Kind of data set: biochemical.
The target in data set [6] is T2, CpGSTD2. Briefly: biochemical.
Data set [7] addresses T1, CpGSTD1. Briefly: Permethrin metabolism assay. As to conditions: for Ratio of the area under the curve relative to lambda cyhalothrin: after 2 h incubation at 30°C with CpGSTD1, 1 μM permethrin, HPLC. The class given is biochemical.
For data set [8], the target named is T2, CpGSTD2. Briefly: Permethrin metabolism assay. The class given is biochemical. As to conditions: for Ratio of the area under the curve relative to lambda cyhalothrin: after 2 h incubation at 30°C with CpGSTD2, 1 μM permethrin, HPLC.
For data set [9], the target named is T1, CpGSTD1. As to conditions: pH 6.5.
In data set [10] the target is T2, CpGSTD2. The source holds these as a separate data set.
In data set [11] the target is T1, CpGSTD1. Kind of data set: DDT dehydrochlorination assay, CpGSTD1. The data set is classed as biochemical. As to conditions: over a period of 2 h, 1 μM DDT, 15 mM reduced GSH, 30°C, pH 6.5, HPLC.
The subject of a further data set is GST-2. As to conditions: cited from earlier work.
Another data set has as its system GST-1b. As to conditions: cited from earlier work.
Substrate in data set [12]: O=[N+]([O-])c1ccc(Cl)c(Cl)c1
Briefly: purified protein, by the assay type. As to conditions: pH 7.5; 30.0 °C.

Setting [13] is: varying substrate 7.8 to 750 μM, 5 mM reduced GSH, 30°C, pH 7.5.
Where [14] appears, read: 2 h, 30°C, conditions where a rate of 7 pmol min^−1 mg^−1 could have been reliably detected.

Where two headings read alike, the source gives them in different places.

For the molecule `O=[N+]([O-])c1ccc(Cl)c([N+](=O)[O-])c1` [CDNB, 1-chloro-2,4-dinitrobenze], the “catalytic efficiency (kcat/KM) higher with CDNB than with DCNB” value on CpGSTD1 [1] (CpGSTD1) and at CpGSTD2 [2] (CpGSTD2) was “at least 100 fold” each time. Moreover, the “turnover of CDNB faster than DCNB” value is “about 230 fold” on CpGSTD1 [1] (CpGSTD1, CDNB versus DCNB) and “about 18 fold” on CpGSTD2 [2] (CpGSTD2, CDNB versus DCNB). Besides, the “turnover of CDNB by CpGSTD1 faster than by CpGSTD2” value on CpGSTD1 [1] (CpGSTD1 versus CpGSTD2) was “about 3 fold”. For the same molecule, the values for the Km at CpGSTD1 [1] and on CpGSTD2 [2] (setting [13]) were 140 ± 10 µM and 30 ± 2 µM, respectively. At CpGSTD2 [2] (5 mM reduced GSH, 30°C, pH 7.5), the kcat was found to be 7.0 s⁻¹. The maximal velocity (Vmax) at CpGSTD2 [2] (setting [13]) is 18 ± 0.2 µmol/min/mg. For the same molecule, the entries for the “catalytic efficiency ratio (kcat/KM)” value in the data set on AgGSTD1-6 and in the data set on AdGSTD1-1 were 790000 M⁻¹ s⁻¹ and 48000 M⁻¹ s⁻¹, respectively.
In the case of `CC(C)(OO)c1ccccc1` [CMHP, cumene hydroperoxide], on CpGSTD1 [3], the “rate of CMHP reduction (peroxidase activity)” value is 1.6 µmol/min/mg. Moreover, at CpGSTD2 [4], the “activity towards CMHP (peroxidase activity)” value is given as “no detectable activity”.
As to `O=C(/C=C/c1ccc(O)cc1)c1ccccc1` [4-hydroxy chalcone, 4-hydroxychalcone], the figures for the concentration for half-maximal inhibition (IC50) against CpGSTD1 [5] and against CpGSTD2 [6] were 16 ± 1 µM and 5 ± 0.2 µM, respectively.
On to `CC1(C)[C@H](C(=O)OCc2cccc(Oc3ccccc3)c2)[C@@H]1C=C(Cl)Cl` [cis-permethrin], for which the “Ratio of the area under the curve relative to lambda cyhalothrin” value on CpGSTD1 [7] is recorded as 0.47 ± 0.02; on CpGSTD2 [8], 0.51 ± 0.03.
With `CCCCCCSC[C@H](NC(=O)CC[C@H](N)C(=O)O)C(=O)NCC(=O)O` [S-hexyl glutathione, S-hexylglutathione], the figures for the half-maximal inhibitory concentration (IC50) on CpGSTD1 [9], against CpGSTD2 [10] and against CpGSTD2 [10] (pH 7.5) were 68 ± 3 µM, 0.24 µM and 0.24 ± 0.01 µM, respectively.
On to `Clc1ccc(C(c2ccc(Cl)cc2)C(Cl)(Cl)Cl)cc1` [DDT, 1,1,1-Trichloro-2,2-bis(4-chlorophenyl)ethane], for which, at CpGSTD1 [11], the “rate of DDT metabolism to DDE” value is on record as 6.4 ± 0.6 nmol per mg protein.
In turn, `C=C(CC)C(=O)c1ccc(OCC(=O)O)c(Cl)c1Cl` [ethacrynic acid (EA), ethacrynic acid] displayed an IC50 on CpGSTD2 [6] of 2.5 ± 0.1 µM.
Consider `O=[N+]([O-])c1ccc(Cl)c(Cl)c1` [DCNB, 1,2-dichloro-4-nitrobenzene], for which the Km at CpGSTD1 [1] is 170 ± 10 µM.
In the case of `CC1(C)C(C=C(Cl)Cl)C1C(=O)OCc1cccc(Oc2ccccc2)c1` (centres unmarked) [permethrin], the metabolism of permethrin result at CpGSTD1 [7] (setting [14]) and on CpGSTD2 [8] (setting [14]) was “neither CpGSTD1 nor CpGSTD2 are able to metabolize” each time.
`CC1(C)[C@H](C=C(Cl)Cl)[C@H]1C(=O)OCc1cccc(Oc2ccccc2)c1` [trans-permethrin]: the “Ratio of the area under the curve relative to lambda cyhalothrin” value came out at 0.24 ± 0.01 on CpGSTD1 [7] and 0.29 ± 0.02 at CpGSTD2 [8].
Take `O=C(/C=C/c1ccccc1)c1ccccc1` [chalcone]: the IC50 in the data set on GST-2 is 165 µM; in the data set on GST-1b, 166 µM; against CpGSTD1 [5], 12.1 ± 0.4 µM; against CpGSTD2 [6], 4 ± 0.2 µM.

B1: CpGSTD2 (Culex pipiens) (protein)
chain: T2 sequence (H9M8E4 1-214)
Take B1: in [12], the Michaelis constant (Km) came out at 220 ± 10 µM, the Vmax came out at 0.96 ± 0.02 µmol/min/mg, the turnover number (kcat) was found to be 0.4 s⁻¹ and the catalytic efficiency (kcat/Km) amounted to 1700 M⁻¹ s⁻¹.

The values are drawn from PMC3583349 (Pest management science, 2012).
